Where only a bound is given, the exact number is not on record here.

For test [1], the system named is Escherichia coli TK-3113 strain producing IMP-8 (strain D). The test can be described thus: MIC of test compound alone or with β-lactamase inhibitor at 4 μg/mL. It counts as cell-based. To be noted: Escherichia coli. Put shortly: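 Broth microdilution MIC of the test compound, run alone and with a β-lactamase inhibitor fixed at 4 μg/mL. Strains were IMP-8-producing E. coli TK-3113 and other β-lactamase producers, including K. pneumoniae Y-1069 carrying OXA-48 and CTX-M-15.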

For test [2], the system named is Klebsiella pneumoniae Y-1133 strain producing NDM-1, OXA-48, and CTX-M-15 (strain C). The description is as above. It counts as cell-based. To be noted: Klebsiella pneumoniae. The protocol: (§1) By using a broth microdilution method, the combinational effect of a test compound and a β-lactamase inhibitor was evaluated.
(§2) The evaluation test for antibacterial activity was performed in the same manner as in Test Example 1.
Klebsiella pneumoniae Y-1133 strain producing NDM-1, OXA-48, and CTX-M-15 (hereinafter, called strain C),
An antibacterial activity evaluation test was performed in the same manner as in Test Example 6.
As the bacterial strain, the strains B, C, and D producing β-lactamase and a Klebsiella pneumoniae Y-1069 strain (hereinafter, called strain F) producing OXA-48 and CTX-M-15 were used.

The subject of test [3] is multidrug-resistant Pseudomonas aeruginosa strain (S-2838 strain). The test can be described thus: Test for protection against systemic infection in mouse with multidrug-resistant Pseudomonas aeruginosa. Format: in vivo. The conditions noted are these: sc, 72 h, read-out: survival rate 3 days after the inoculation with bacteria. The procedure: As mice, ICR male SPF mice (4 weeks old: 10 mice per group) were used. Clinically isolated multidrug-resistant Pseudomonas aeruginosa strain (S-2838 strain) cultured overnight on a Mueller-Hinton agar plate at 37° C. was cultured on a cation-adjusted Mueller Hinton medium for 5 hours, and then diluted 20-fold with a 10% mucin/phosphate buffer, thereby preparing an inoculum. An infection was induced by intraperitoneally inoculating the mice with the inoculum at 0.5 mL (about 10^6 CFU/mouse). Each test compound was dissolved in physiological saline, and 1 hour after the infection, the compound was subcutaneously administered once to the mice at 40 mg/kg. The control group was administered with the same amount of physiological saline used as a vehicle. The number of surviving mice was recorded 3 days after the infection.
A test for protection against systemic infection in a mouse with multidrug-resistant Pseudomonas aeruginosa was performed in the same manner as in Test Example 2.

For test [4], the system named is Escherichia coli TK-1747 strain producing CTX-M-15 (strain A). Briefly: MIC of test compound alone or with β-lactamase inhibitor at 4 μg/mL. Format: cell-based. To be noted: Escherichia coli. The protocol:
as §1, §2
Escherichia coli TK-1747 strain producing CTX-M-15 (hereinafter, called strain A),

[5] abbreviates: test compound alone (β-lactamase inhibitor N/A).

Turning to `CC(C)(O/N=C(\C(=O)NC1C(=O)N2C[C@@](C(=O)O)(N3CCN(NC(=O)C(=O)c4ccc(O)c(O)c4Cl)C(=O)C3=O)S[C@H]12)c1csc(N)n1)C(=O)O` (stereo partly drawn) [Example 126, (3R,5R,6R)-6-((Z)-2-(2-aminothiazol-4-yl)-2-(((2-carboxypropan-2-yl)oxy)imino)aceta-mido)-3-(4-(2-(2-chloro-3,4-dihydroxy-phenyl)-2-oxoaceta-mido)-2,3-dioxopipera-zin-1-yl)-7-oxo-4-thia-1-azabicyclo[3.2.0]-heptane-3-carboxylic acid], the MIC in test [1] (NAC added at 4 μg/mL) turned out to be 0.03 µg/mL; in test [1] (VAB added at 4 μg/mL), 2 µg/mL; in test [1] (ZID added at 4 μg/mL), 0.03 µg/mL; in test [1] (setting [5]), 4 µg/mL; in test [2] (AVI added at 4 μg/mL), 0.5 µg/mL; in test [2] (NAC added at 4 μg/mL), 0.03 µg/mL. Besides, the MIC in test [2] (ZID added at 4 μg/mL) is below 0.015 µg/mL; in test [2] (setting [5]), 1 µg/mL; in test [4] (AVI added at 4 μg/mL), 0.03 µg/mL; in test [4] (CVA added at 4 μg/mL), 0.03 µg/mL; in test [4] (NAC added at 4 μg/mL), 0.03 µg/mL; in test [4] (SBT added at 4 μg/mL), 0.06 µg/mL. For the same compound, the values for the MIC in test [4] (TAZ added at 4 μg/mL), in test [4] (ZID added at 4 μg/mL) and in test [4] (setting [5]) were 0.06 µg/mL, below 0.015 µg/mL and 0.12 µg/mL, respectively. In test [3], the responders at 40 mg/kg was at least 90%.

(Values after patent US20220241249A1, “PHARMACEUTICAL COMPOSITION AND KIT CONTAINING NOVEL PENAM DERIVATIVE OR SALT THEREOF AND ONE OR MORE COMPOUNDS SELECTED FROM beta-LACTAMASE INHIBITORY COMPOUND AND ANTIBACTERIAL COMPOUND OR SALTS THEREOF” (priority 2019, published 2022).)
